Data on two compounds can be found in ChEMBL document CHEMBL4052777, “Synthesis of novel hybrids of pyrazole and coumarin as dual inhibitors of COX-2 and 5-LOX” (Bioorg Med Chem Lett, 2017).

The structures appear in SMILES notation. pIC50: −log10 of the molar value.

The subject of assay [1] is SMMC-7721. Nature of the assay: Antiproliferative activity against human SMMC7721 cells after 48 hrs by MTT assay. The assay is classed as functional, cell-based. Particulars: SMMC-7721, 48 h.
The test system of assay [2] is HEK-293T. Nature of the assay: Antiproliferative activity against human 293T cells after 48 hrs by MTT assay. The format is cell-based. Background: Formazan colour is commonly taken as a measure of viable cells.
Assay [3] relates to HT-29. Nature of the assay: cells. Particulars: Homo sapiens, HT-29, 48 h.
Description: Antiproliferative activity against human HT-29 cells after 48 hrs by MTT assay
Assay [4] relates to HeLa. Nature of the assay: cells. Particulars: Homo sapiens, 48 h.
Assay [5] deals with A549. Kind of assay: cells. Particulars: Homo sapiens, A549, 48 h.

On to `Cc1ccc(-c2cc(C(F)(F)F)nn2-c2ccc(S(N)(=O)=O)cc2)cc1` [CELECOXIB], for which the pIC50 – broadly, the IC50 on a negative log10 scale, so that one unit is a factor of ten – was 5.22 in assay [1]; 3.95 in assay [2]; 5.07 in assay [3]; 4.96 in assay [4]; 5.11 in assay [5].

For `O=c1ccc2ccc(O)cc2o1` [UMBELLIFERONE], the pIC50 in assay [1] is 4.70; in assay [2], 3.72; in assay [3] it was 4.64; in assay [4], 4.37; in assay [5] it was 4.68.
